# Tests used:
# [1] = system: T47D (PI3Kα-H1047R) cell line; test: HTRF phospho-AKT(S473) cell assay in T47D cells; format: cell-based, human; details: Homo sapiens; T47D (PI3Kα-H1047R) cells, HTRF phospho-AKT(S473), 2 hours compound incubation
# In short: (§1)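 Cells plated overnight (T47D in RPMI/10% FBS/0.2 units/mL insulin; SKBR3 in McCoy's 5A/10% FBS), then given 12-point 1:3 compound series (top 5 μM T47D, 10 μM SKBR3; ≤0.5% DMSO) for 2 h at 37° C. SKBR3 stimulated with 70 ng/ml PDGF-BB for final 15 min. Lysate pAKT(S473) by HTRF; IC50 calculated.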
# PI3Kα H1047R = PI3Kα H1047R (Homo sapiens, UniProt P42336, H1047R); test: PI3Kα H1047R enzyme assay (Transcreener ADP2 TR-FRET Red Assay); format: biochemical; details: purified recombinant full-length protein; 2 hours pre-incubation with compound
# Experimental: (§2) Activity against PI3Kα and PI3Kα H1047R enzymes were determined in biochemical assays using purified recombinant full-length proteins with the Transcreener ADP^2 TR-FRET Red Assay from Bellbrook Labs. (Catalogue number 3011-10K). Test compounds were dissolved in DMSO and were tested in 11 point 1:3 serial dilutions, typical final concentration range from 50,000 nM to 0.85 nM. Enzymes were pre-incubated with compounds for 2 hours at room temperature prior to initiating the reactions. Assays were initiated with a 2×ATP/PI(4,5)P2 diC8 substrate mixture. After 60 minutes at room temperature, the reactions were quenched with detection reagent and incubated for an additional 60 minutes at room temperature. The plates were read using a multimode reader and the emission ratio of 665 nm to 615 nm was determined. This ratio was converted to percent of control (POC). [1-(high control-sample signal)/(high control-low control)]*100. Wells without compound were used to determine high control values and wells without enzyme were used to determine low control values. The POC values were fit using a four-parameter logistic model and the value where the fit curve was equal to 50 POC was reported as the IC50 using the Signals VitroVivo software package (PerkinElmer). Final assay conditions were: 40 mM HEPES pH 7.5, 20 mM NaCl, 25 mM MgCl2, 0.01% Triton X-100. The enzyme source, catalogue number, final enzyme concentration, and final ATP and PI(4,5)P2 diC8 concentration can be found in the table E10 below.
# PI3Kα = PI3Kα (Homo sapiens, UniProt P42336); test: PI3Kα enzyme assay (Transcreener ADP2 TR-FRET Red Assay); format: biochemical; details: purified recombinant full-length protein; 2 hours pre-incubation with compound; read-out: PI3Kα WT IC50
# Experimental: as §2
# [2] = system: SKBR3 (PI3Kα-Wild Type) cell line; test: HTRF phospho-AKT(S473) cell assay in SKBR3 cells; format: cell-based, human; details: Homo sapiens, SK-BR-3; SKBR3 (PI3Kα-Wild Type) cells, HTRF phospho-AKT(S473), 2 hours compound incubation, PDGF-BB stimulated
# In short: as §1
# Sequence of PI3Kα (P42336 whole entry): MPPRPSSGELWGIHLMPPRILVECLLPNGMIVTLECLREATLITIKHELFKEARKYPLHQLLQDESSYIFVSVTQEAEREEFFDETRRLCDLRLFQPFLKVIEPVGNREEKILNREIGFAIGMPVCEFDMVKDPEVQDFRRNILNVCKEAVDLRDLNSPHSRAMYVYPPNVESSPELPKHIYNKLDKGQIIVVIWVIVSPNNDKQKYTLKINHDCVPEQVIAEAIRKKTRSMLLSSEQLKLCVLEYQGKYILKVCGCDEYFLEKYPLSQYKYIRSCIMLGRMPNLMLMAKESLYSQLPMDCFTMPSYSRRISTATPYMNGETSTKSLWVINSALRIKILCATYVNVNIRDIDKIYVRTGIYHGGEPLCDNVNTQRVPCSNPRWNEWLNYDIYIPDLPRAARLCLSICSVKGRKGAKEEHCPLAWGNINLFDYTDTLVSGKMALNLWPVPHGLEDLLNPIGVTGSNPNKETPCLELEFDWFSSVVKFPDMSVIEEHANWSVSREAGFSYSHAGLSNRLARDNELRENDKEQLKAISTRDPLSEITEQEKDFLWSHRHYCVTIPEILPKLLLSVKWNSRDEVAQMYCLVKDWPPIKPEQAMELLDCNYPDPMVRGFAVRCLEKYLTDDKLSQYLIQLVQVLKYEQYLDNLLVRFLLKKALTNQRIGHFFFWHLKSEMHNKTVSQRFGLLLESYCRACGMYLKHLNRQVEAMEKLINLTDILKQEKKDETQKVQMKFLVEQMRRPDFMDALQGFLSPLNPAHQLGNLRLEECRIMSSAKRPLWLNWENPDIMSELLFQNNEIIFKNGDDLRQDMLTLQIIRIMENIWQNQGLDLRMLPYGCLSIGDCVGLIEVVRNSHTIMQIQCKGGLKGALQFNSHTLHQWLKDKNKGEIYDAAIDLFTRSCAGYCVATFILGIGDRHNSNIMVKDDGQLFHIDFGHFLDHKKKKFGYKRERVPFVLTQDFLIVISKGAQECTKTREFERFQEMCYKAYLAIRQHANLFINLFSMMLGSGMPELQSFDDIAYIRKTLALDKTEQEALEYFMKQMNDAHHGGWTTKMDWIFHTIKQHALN
# Sequence of PI3Kα (P27986 2-724 partner): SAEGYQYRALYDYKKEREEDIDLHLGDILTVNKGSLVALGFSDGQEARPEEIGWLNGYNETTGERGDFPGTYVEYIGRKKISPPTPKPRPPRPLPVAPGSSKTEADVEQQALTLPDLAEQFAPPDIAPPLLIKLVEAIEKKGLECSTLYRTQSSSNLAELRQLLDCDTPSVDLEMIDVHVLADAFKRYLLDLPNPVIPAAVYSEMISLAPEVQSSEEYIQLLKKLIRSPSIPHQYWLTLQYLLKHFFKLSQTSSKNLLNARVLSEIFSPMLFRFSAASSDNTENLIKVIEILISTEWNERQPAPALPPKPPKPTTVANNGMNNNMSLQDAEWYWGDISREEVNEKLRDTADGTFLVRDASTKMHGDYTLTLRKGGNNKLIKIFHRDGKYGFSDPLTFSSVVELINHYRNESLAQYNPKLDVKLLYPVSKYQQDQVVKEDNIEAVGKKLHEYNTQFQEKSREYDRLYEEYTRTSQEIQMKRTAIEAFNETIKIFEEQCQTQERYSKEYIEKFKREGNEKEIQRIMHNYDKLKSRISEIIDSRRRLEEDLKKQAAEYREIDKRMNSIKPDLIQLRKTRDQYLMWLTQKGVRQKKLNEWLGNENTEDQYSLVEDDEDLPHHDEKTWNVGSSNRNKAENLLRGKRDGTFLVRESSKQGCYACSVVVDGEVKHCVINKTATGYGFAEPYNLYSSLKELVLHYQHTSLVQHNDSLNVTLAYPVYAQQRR
# Sequence of PI3Kα H1047R (P42336 whole entry H1047R): as the sequence (P42336 whole entry) above, with H1047R counted along it
# Sequence of PI3Kα H1047R (P27986 2-724 partner): as the sequence (P27986 2-724 partner) above
Compound,IC50 [1],IC50 (PI3Kα H1047R),IC50 (PI3Kα),IC50 [2]
"Cc1cc([C@@H](C)Nc2ccc(Cl)nc2C(=O)NS(C)(=O)=O)c2nc(N3CCC(F)(F)C[C@@H]3C)n(C)c(=O)c2c1 (single isomer, unassigned) [Compound 42, 6-chloro-3-(((R)-1-(2-((R*)-4,4-difluoro-2-methylpiperidin-1-yl)-3,6-dimethyl-4-oxo-3,4-dihydroquinazolin-8-yl)ethyl)amino)-N-(methylsulfonyl) picolinamide]",250 to 500 nM,500 to 1000 nM,≥ 1000 nM,1000 to 5000 nM
"Cc1cc([C@H](C)Nc2ccccc2S(=O)(=O)NC(=O)C(F)F)c2nc(N3Cc4ccc(F)cc4C3)n(C)c(=O)c2c1 (single isomer, unassigned) [Compound 103, 2,2-difluoro-N-((2-((1-(2-(5-fluoroisoindolin-2-yl)-3,6-dimethyl-4-oxo-3,4-dihydroquinazolin-8-yl)ethyl)amino)phenyl)sulfonyl)acetamide]",1000 to 5000 nM,≥ 1000 nM,≥ 1000 nM,≥ 5000 nM
"Cc1cc([C@@H](C)Nc2ccccc2S(N)(=O)=O)c2nc(N3Cc4ccc(F)cc4C3)n(C)c(=O)c2c1 (single isomer, unassigned) [Compound 104, 2-((1-(2-(5-fluoroisoindolin-2-yl)-3,6-dimethyl-4-oxo-3,4-dihydroquinazolin-8-yl)ethyl)amino) benzenesulfonamide]",250 to 500 nM,≥ 1000 nM,≥ 1000 nM,≥ 5000 nM
"Cc1cc([C@H](C)Nc2ccccc2S(N)(=O)=O)c2nc(N3Cc4ccc(F)cc4C3)n(C)c(=O)c2c1 (single isomer, unassigned) [Compound 105, 2-((1-(2-(5-fluoroisoindolin-2-yl)-3,6-dimethyl-4-oxo-3,4-dihydroquinazolin-8-yl)ethyl)amino) benzenesulfonamide]",1000 to 5000 nM,≥ 1000 nM,≥ 1000 nM,≥ 5000 nM
"Cc1cc([C@@H](C)Nc2cn(C)nc2C(=O)NS(C)(=O)=O)c2nc(N3Cc4ccc(F)cc4C3)n(C)c(=O)c2c1 (single isomer, unassigned) [Compound 106, 4-((1-(2-(5-fluoroisoindolin-2-yl)-3,6-dimethyl-4-oxo-3,4-dihydroquinazolin-8-yl)ethyl)amino)-1-methyl-N-(methylsulfonyl)-1H-pyrazole-3-carboxamide]",1000 to 5000 nM,≥ 1000 nM,≥ 1000 nM,≥ 5000 nM
"Cc1cc([C@H](C)Nc2cn(C)nc2C(=O)NS(C)(=O)=O)c2nc(N3Cc4ccc(F)cc4C3)n(C)c(=O)c2c1 (single isomer, unassigned) [Compound 107, 4-((1-(2-(5-fluoroisoindolin-2-yl)-3,6-dimethyl-4-oxo-3,4-dihydroquinazolin-8-yl)ethyl)amino)-1-methyl-N-(methylsulfonyl)-1H-pyrazole-3-carboxamide]",1000 to 5000 nM,≥ 1000 nM,≥ 1000 nM,≥ 5000 nM
"Cc1cc([C@@H](C)Nc2cn(C)nc2C(N)=O)c2nc(N3Cc4ccc(F)cc4C3)n(C)c(=O)c2c1 (single isomer, unassigned) [Compound 108]",1000 to 5000 nM,≥ 1000 nM,≥ 1000 nM,≥ 5000 nM
"Cc1ccc(N[C@H](C)c2cccc3c(=O)n(C)c(N4Cc5ccc(F)cc5C4)nc23)c(C(=O)NS(C)(=O)=O)n1 [Compound 2, (R)-3-((1-(2-(5-fluoroisoindolin-2-yl)-3-methyl-4-oxo-3,4-dihydroquinazolin-8-yl)ethyl)amino)-6-methyl-N-(methylsulfonyl) picolinamide]",1000 to 5000 nM,≥ 1000 nM,≥ 1000 nM,≥ 5000 nM
"C[C@@H](Nc1ccc(Cl)nc1C(=O)NS(C)(=O)=O)c1cc(F)cc2c(=O)n(C)c(N3CCC(F)(F)CC3)nc12 [Compound 3, (R)-6-chloro-3-((1-(2-(4,4-difluoropiperidin-1-yl)-6-fluoro-3-methyl-4-oxo-3,4-dihydroquinazolin-8-yl)ethyl)amino)-N-(methylsulfonyl) picolinamide]",< 250 nM,250 to 500 nM,≥ 1000 nM,1000 to 5000 nM
"Cc1cc([C@@H](C)Nc2ccc(Cl)nc2C(=O)NS(C)(=O)=O)c2nc(N3Cc4cnn(C)c4C3)n(C)c(=O)c2c1 [Compound 4, (R)-6-chloro-3-((1-(3,6-dimethyl-2-(1-methyl-4,6-dihydropyrrolo[3,4-c]pyrazol-5(1H)-yl)-4-oxo-3,4-dihydroquinazolin-8-yl)ethyl)amino)-N-(methylsulfonyl) picolinamide]",< 250 nM,250 to 500 nM,≥ 1000 nM,1000 to 5000 nM
"Cc1cc([C@@H](C)Nc2ccc(Cl)nc2C(=O)NS(C)(=O)=O)c2nc(N3CCOCC3)n(C)c(=O)c2c1 [Compound 5, (R)-6-chloro-3-((1-(3,6-dimethyl-2-morpholino-4-oxo-3,4-dihydroquinazolin-8-yl)ethyl)amino)-N-(methylsulfonyl) picolinamide]",< 250 nM,500 to 1000 nM,≥ 1000 nM,1000 to 5000 nM
"Cc1cc([C@@H](C)Nc2ccc(Cl)nc2C(=O)NS(C)(=O)=O)c2nc(NC34CC(C3)C4)n(C)c(=O)c2c1 [Compound 6, (R)-3-((1-(2-(bicyclo[1.1.1]pentan-1-ylamino)-3,6-dimethyl-4-oxo-3,4-dihydroquinazolin-8-yl)ethyl)amino)-6-chloro-N-(methylsulfonyl) picolinamide]",1000 to 5000 nM,≥ 1000 nM,≥ 1000 nM,≥ 5000 nM
"Cc1cc([C@@H](C)Nc2ccc(Cl)nc2C(=O)NS(C)(=O)=O)c2nc(NC(C)(C)C)n(C)c(=O)c2c1 [Compound 7, (R)-3-((1-(2-(tert-butylamino)-3,6-dimethyl-4-oxo-3,4-dihydroquinazolin-8-yl)ethyl)amino)-6-chloro-N-(methylsulfonyl) picolinamide]",1000 to 5000 nM,≥ 1000 nM,≥ 1000 nM,≥ 5000 nM
"Cc1cc([C@@H](C)Nc2ccc(Cl)nc2C(=O)NS(C)(=O)=O)c2nc(NCC3CC3)n(C)c(=O)c2c1 [Compound 8, (R)-6-chloro-3-((1-(2-((cyclopropylmethyl)amino)-3,6-dimethyl-4-oxo-3,4-dihydroquinazolin-8-yl)ethyl)amino)-N-(methylsulfonyl) picolinamide]",250 to 500 nM,250 to 500 nM,≥ 1000 nM,1000 to 5000 nM
"Cc1cc([C@@H](C)Nc2ccc(Cl)nc2C(=O)NS(C)(=O)=O)c2nc(N3CC4(C3)CC(F)(F)C4)n(C)c(=O)c2c1 [Compound 9, (R)-6-chloro-3-((1-(2-(6,6-difluoro-2-azaspiro[3.3]heptan-2-yl)-3,6-dimethyl-4-oxo-3,4-dihydroquinazolin-8-yl)ethyl)amino)-N-(methylsulfonyl) picolinamide]",250 to 500 nM,500 to 1000 nM,≥ 1000 nM,1000 to 5000 nM
"Cc1cc([C@@H](C)Nc2ccc(Cl)nc2C(=O)NS(C)(=O)=O)c2nc(NC3CCC3)n(C)c(=O)c2c1 [Compound 10, (R)-6-chloro-3-((1-(2-(cyclobutylamino)-3,6-dimethyl-4-oxo-3,4-dihydroquinazolin-8-yl)ethyl)amino)-N-(methylsulfonyl) picolinamide]",1000 to 5000 nM,250 to 500 nM,≥ 1000 nM,≥ 5000 nM

# — patent US12281122B1, “PI3K inhibitors” (Cogent Biosciences, Inc., priority 2023, dated 2025)
